What was measured:
Assay in all cases: relative viability (nuclei count vs DMSO), 5 days (fraction); higher = more cells survive
[1] = compound: C[C@]12O[C@H](C[C@]1(O)CO)n1c3ccccc3c3c4c(c5c6ccccc6n2c5c31)CNC4=O [Lestaurtinib] + CC(=O)Nc1cccc(-n2c(=O)n(C3CC3)c(=O)c3c(Nc4ccc(I)cc4F)n(C)c(=O)c(C)c32)c1 [Trametinib] (partner 0.02 µM)
Summary of the method: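 Lung cancer cell lines were pin-tool dosed in 1536-well plates on the day after seeding, with either a lone drug or a fixed anchor-drug dose plus five library-drug doses (not always all listed) in √10 steps. Nuclei were counted on 4× images after 5 days. Relative viability is the ratio of treated-well to vehicle-well nuclei counts, with each value a median of duplicate plates.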

Lestaurtinib = compound: C[C@]12O[C@H](C[C@]1(O)CO)n1c3ccccc3c3c4c(c5c6ccccc6n2c5c31)CNC4=O [Lestaurtinib]
Summary of the method: (§1)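 Lung cancer cell lines received five library-drug doses (not always all listed) spaced by √10, pinned on vehicle-anchored 1536-well plates after an overnight stay at 37 °C. Five days later, with no medium change, nuclei were Hoechst-stained, imaged at 4× and counted with MetaXpress. Viability is treated-well nuclei relative to vehicle-well nuclei, as a median across plates. Passing plates had control CV below 25% and at least one doubling.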

[2] = compound: C1/C(=C\C2=CC=CS2)/C(=O)/C(=C/C3=CC=CS3)/C1
Summary of the method: as §1

TPCA-1 = compound: C1=CC(=CC=C1C2=CC(=C(S2)NC(=O)N)C(=O)N)F [TPCA-1]
Summary of the method: as §1

Cell Line: UMC-11
- relative viability ([1]; first compound 0.005 µM): 0.746
- relative viability ([1]; first compound 0.01581 µM): 0.6
- relative viability ([1]; first compound 0.05 µM): 0.601
- relative viability ([1]; first compound 0.1581 µM): 0.311
- relative viability ([1]; first compound 0.5 µM): 0.155
- relative viability (Lestaurtinib; 0.005 µM): 1.01
- relative viability (Lestaurtinib; 0.01581 µM): 0.958
- relative viability (Lestaurtinib; 0.05 µM): 0.615
- relative viability (Lestaurtinib; 0.1581 µM): 0.353
- relative viability (Lestaurtinib; 0.5 µM): 0.19
- relative viability ([2]; 0.2 µM): 0.975
- relative viability ([2]; 0.6325 µM): 0.993
- relative viability ([2]; 2 µM): 0.954
- relative viability ([2]; 6.325 µM): 0.711
- relative viability ([2]; 20 µM): 0.941
- relative viability (TPCA-1; 0.04 µM): 1.03
- relative viability (TPCA-1; 0.1265 µM): 0.87
- relative viability (TPCA-1; 0.4 µM): 1.03
- relative viability (TPCA-1; 1.265 µM): 0.976
- relative viability (TPCA-1; 4 µM): 0.374

— the supplement of paper PMC10307832
